Common to all, as to format: functional, organism-based
Experiment [1] has as its system Plasmodium falciparum. Nature of the experiment: In vitro antimalarial activity against chloroquine-sensitive Plasmodium falciparum NF54.
For experiment [2], the system named is Plasmodium falciparum. Nature of the experiment: In vitro antimalarial activity against chloroquine-sensitive Plasmodium falciparum NF54 in C4alpha-alkylated trioxanes.
For experiment [3], the system named is Plasmodium falciparum. Nature of the experiment: In vitro antimalarial activity against chloroquine-sensitive Plasmodium falciparum NF54 in C4beta-stannylmethyl trioxanes.

22 compounds from ChEMBL document CHEMBL1131600 (J Med Chem, 1998) can be followed below.

As usually defined, the IC50 is the concentration needed to halve the response being measured. In the experiment on Plasmodium falciparum [1], “((6R,9S,12S)-12-Methoxy-9-methyl-10,11,13-trioxa-tricyclo[7.2.2.01,6]tridec-8-ylmethyl)-triphenyl-stannane” gave an IC50 greater than 2.5 µM.

With `CO[C@H]1O[C@@]2(C)OOC13[C@H](CCO)CCC[C@@H]3C[C@@H]2C`, in the experiment with Plasmodium falciparum [1] (Plasmodium falciparum), the IC50 was determined as 0.0077 µM. In other words, the single-digit nanomolar range.

`CO[C@H]1O[C@@]2(C)OOC13[C@H](CCOCc1ccc(F)cc1)CCC[C@@H]3C[C@@H]2C` yielded an IC50 in the experiment with Plasmodium falciparum [1] (Plasmodium falciparum) of 0.013 µM. This IC50 is about 1.7-fold higher than that of the compound before.

`CO[C@H]1O[C@@]2(C)OOC13[C@H](CCOCc1ccccc1)CCC[C@@H]3C[C@@H]2C` had an IC50 in the experiment with Plasmodium falciparum [1] (Plasmodium falciparum) of 0.011 µM.

Take `CO[C@H]1O[C@@]2(C)OOC13CCCC[C@@H]3CC2CO` (some centres undefined): the IC50 in the experiment on Plasmodium falciparum [2] was greater than 2.5 µM; with Plasmodium falciparum [3] (Plasmodium falciparum) it was 0.23 µM.

Take “2-((2S,6R,9S,12S)-12-Methoxy-9-methyl-8-trimethylstannanylmethyl-10,11,13-trioxa-tricyclo[7.2.2.0 1,6 ]tridec-2-yl)-ethanol”: the IC50 in the experiment with Plasmodium falciparum [3] is greater than 2.5 µM.

Turning to `CO[C@H]1O[C@@]2(C)OOC13CCCC[C@@H]3C[C@@H]2COCc1ccc(F)cc1`, the IC50 with Plasmodium falciparum [1] (Plasmodium falciparum) turned out to be 0.019 µM.

Consider `CO[C@H]1O[C@@]2(C)OOC13[C@H](CCO)CCC[C@@H]3CC2C[Si](C)(C)C` (some centres undefined), for which the values for the IC50 in the experiment with Plasmodium falciparum [2] and with Plasmodium falciparum [3] (Plasmodium falciparum) were greater than 2.5 µM and 0.24 µM, respectively.

With `CO[C@H]1O[C@@]2(C)OOC13CCCC[C@@H]3C[C@@H]2CO`, the IC50 in the experiment with Plasmodium falciparum [1] (Plasmodium falciparum) is 0.23 µM.

Turning to `CO[C@H]1O[C@@]2(C)OOC13[C@H](CCO)CCC[C@@H]3CC2Cc1ccccc1` (some centres undefined), the IC50 worked out at 1.7 µM in the experiment with Plasmodium falciparum [2] and 0.0083 µM in the experiment with Plasmodium falciparum [3] (Plasmodium falciparum).

As for `CO[C@H]1O[C@@]2(C)OOC13[C@H](CCO)CCC[C@@H]3CC2C` (some centres undefined), the IC50 with Plasmodium falciparum [2] came out at 1.3 µM; with Plasmodium falciparum [3] (Plasmodium falciparum), 0.0077 µM.

For `CO[C@H]1O[C@@]2(C)OOC13CCCC[C@@H]3CC2c1ccccc1` (some centres undefined), the IC50 in the experiment on Plasmodium falciparum [2] was greater than 2.5 µM; in the experiment on Plasmodium falciparum [3] (Plasmodium falciparum), 2 µM.

In turn, `CO[C@H]1O[C@@]2(C)OOC13[C@H](CCOP(=O)(Oc1ccccc1)Oc1ccccc1)CCC[C@@H]3C[C@@H]2C` returned an IC50 in the experiment on Plasmodium falciparum [1] (Plasmodium falciparum) of 0.0069 µM.

With “((6R,9S,12S)-12-Methoxy-9-methyl-10,11,13-trioxa-tricyclo[7.2.2.01,6]tridec-8-ylmethyl)-trimethyl-stannane”, the IC50 with Plasmodium falciparum [1] was greater than 2.5 µM.

For `CO[C@H]1O[C@@]2(C)OOC13CCCC[C@@H]3CC2Cc1ccc(CO)cc1` (some centres undefined), the IC50 in the experiment on Plasmodium falciparum [2] is greater than 2.5 µM; with Plasmodium falciparum [3] (Plasmodium falciparum) it was 0.6 µM.

Compound `CO[C@H]1O[C@]2(C)CC[C@H]3CCC[C@@H](CCOCc4ccc(F)cc4)C31OO2` came in with an IC50 in the experiment with Plasmodium falciparum [1] (Plasmodium falciparum) of 0.031 µM.

Turning to `CO[C@H]1O[C@@]2(C)OOC13CCCC[C@@H]3CC2Cc1ccccc1` (some centres undefined), the IC50 in the experiment on Plasmodium falciparum [2] was greater than 2.5 µM; with Plasmodium falciparum [3] (Plasmodium falciparum) it was 0.31 µM.

In turn, `CO[C@H]1O[C@]2(C)CC[C@H]3CCC[C@@H](CCOCc4ccccc4)C31OO2` showed an IC50 in the experiment with Plasmodium falciparum [1] (Plasmodium falciparum) of 0.025 µM.

For the compound “Tributyl-((6R,9S,12S)-12-methoxy-9-methyl-10,11,13-trioxa-tricyclo[7.2.2.01,6]tridec-8-ylmethyl)-stannane”, the IC50 in the experiment with Plasmodium falciparum [1] was greater than 2.5 µM.

`CO[C@H]1O[C@@]2(C)OOC13CCCC[C@@H]3CC2Cc1ccc(COCc2ccc(F)cc2)cc1` (some centres undefined) showed an IC50 in the experiment on Plasmodium falciparum [1] (Plasmodium falciparum) of 0.24 µM. This lies in the sub-micromolar range.

For the compound `CO[C@H]1O[C@]2(C)CC[C@H]3CCC[C@@H](CCO)C31OO2`, in the experiment on Plasmodium falciparum [1] (Plasmodium falciparum), the IC50 stood at 0.12 µM.

`CO[C@H]1O[C@@]2(C)OOC13CCCC[C@@H]3C[C@@H]2Cc1ccc(CO)cc1` yielded an IC50 in the experiment with Plasmodium falciparum [1] (Plasmodium falciparum) of 0.6 µM.
